In patent US20120130146A1, “CONTINUOUS ADMINISTRATION OF CILENGITIDE IN CANCER TREATMENTS” (Merck Patent GmbH, priority 2009, published 2012):
Several values for one entry are separate records, joined by “and”; a condition that tells them apart may be missing. Equal entries are not always repeated. Where two headings read alike, the source gives them in different places.

Legend:
[1] = Continuous infusion study pharmacokinetics (plasma); format: in vivo, human; conditions: for dose proportionality of steady-state concentration (Css): continuous infusion 1-12 mg/h; for level at 2 h / level at 168 h / level at 170 h / level at 336 h / level at 338 h / level at 504 h / level at 506 h: iv
Protocol: Patients with solid tumors received a continuous infusion of 1 mg/h, 2 mg/h, 4 mg/h, 8 mg/h or 12 mg/h. with a weekly change of infusion bag.
Blood samples were taken on Day 1 (first dose) at pre-dose and 2 h after start of infusion and then weekly just before change of infusion bag and 2 hours thereafter for the first 4 weeks.
The following pharmacokinetic parameters were derived at Merck KGaA. Darmstadt, Germany, by mathematical methods using Kinetica Version 4.1.1.
CL the total body clearance of EMD 121974 from plasma Css plasma concentration at steady state ke elimination rate constant Rate infusion rate t1/2, half life V Volume of distribution
Css, the plasma concentration at steady state, has been estimated by the arithmetic mean of all concentration values from time point 168 h to 506 h per patient.
From Css and t1/2 the PK parameters CL, ke and V were calculated as follows: […]

[2] = test system: advanced solid malignancy; assay: Phase I study of continuous infusion EMD 121974 in patients with advanced solid malignancy (safety); format: in vivo
Protocol: Background: Integrins avβ3 and avβ5 are cell-surface receptors that play a significant role in angiogenesis by mediating the ligation signal that allows endothelial cells to attach to the extracellular matrix. These integrins share the binding epitope Arg-Gly-Asp (RGD). EMD is an RGD-containing cyclic pentapeptide. In clinical studies to date, EMD has been administered in an intermittent fashion. […] Methods: EMD was administered as a continuous infusion without break in 4-week cycles. Plasma samples for pharmacokinetic studies were obtained weekly in cycle 1 immediately prior to and 2 hours after infusion bag change. Results: To date 21 patients (15 male/6 female, median age 56, median Karnofsky performance status 90%) have been treated at the following dose levels: 1, 2, 4, 8, 12, 18, and 27 mg/h. […] Non-hematologic toxicities have been limited to grade<2 and include alopecia, anorexia, diarrhea, fatigue, hypokalemia, hyponatremia, hypophosphatemia, insomnia, mucositis, nail changes, nausea, and transaminase elevation. […] Pharmacokinetic analysis has been completed for patients treated at the 12 mg/h dose level and below. […] Conclusions: EMD can be safely administered as a continuous infusion at doses of up to at least 18 mg/h. No single toxicity has been consistently observed.

[3] = Rate 12 mg/h, Mean, t1/2 = 4 hours
[4] = human, plasma, 1 mg/h, Rate 1 mg/h, Mean, read-out: EMD 121974 Concentrations, Mean
[5] = human, plasma, 2 mg/h, Rate 2 mg/h, Mean, read-out: EMD 121974 Concentrations, Mean
[6] = human, plasma, 4 mg/h, Rate 4 mg/h, Mean, read-out: EMD 121974 Concentrations, Mean
[7] = human, plasma, 8 mg/h, Rate 8 mg/h, Mean, read-out: EMD 121974 Concentrations, Mean
[8] = human, plasma, 12 mg/h, Rate 12 mg/h, Mean, read-out: EMD 121974 Concentrations, Mean

## CC(C)[C@H]1C(=O)N[C@@H](CCCN=C(N)N)C(=O)NCC(=O)N[C@@H](CC(=O)O)C(=O)N[C@H](Cc2ccccc2)C(=O)N1C [Cilengitide, cyclo-(Arg-Gly-Asp-DPhe-NMeVal)]
[1]; Rate 12 mg/h, 338 h, individual subjects, listed as EMD 121974
  EMD 121974 Concentrations: 1780.00 ng/mL and 1610.00 ng/mL and 1620.00 ng/mL
[1]; Rate 12 mg/h, 504 h, individual subjects, listed as EMD 121974
  EMD 121974 Concentrations: 2220.00 ng/mL and 989.00 ng/mL and 2050.00 ng/mL
[1]; Rate 12 mg/h, 506 h, individual subjects, listed as EMD 121974
  EMD 121974 Concentrations: 1550.00 ng/mL and 1230.00 ng/mL and 1880.00 ng/mL
[1]; Rate 12 mg/h, CL=Rate/Css, individual subjects, listed as EMD 121974
  CL: 7.66 L/h and 6.75 L/h
[1]; [3]
  V, Mean: 39.5 L
  ke, Mean: 0.173 h⁻¹
[1]; Rate 12 mg/h, V=CL/ke, t1/2 = 4 hours, individual subjects, listed as EMD 121974
  V: 35.4 L and 44.2 L and 39.0 L
[1]; Rate 12 mg/h, for t1/2 = 4 hours, individual subjects
  ke: 0.173 h⁻¹
[1]; Rate 12 mg/h, mean of 168 h to 506 h values per patient, individual subjects, listed as EMD 121974
  Css: 1956.2 ng/mL and 1566.5 ng/mL and 1776.7 ng/mL
[1]; assuming a half-life of 4 hours
  time to reach steady state conditions: ≤ 24 h
[1]; listed as EMD
  dose proportionality of steady-state concentration (Css): increased proportionally to dose
[1]; listed as EMD 121974
  dose proportionality of steady-state concentration (Css): increase proportional to dose
[1]; human, plasma, intravenous, 1 mg/h, Rate 1 mg/h, Mean, read-out: CL, Mean (converted)
  clearance: 139 mL/min
[1]; human, plasma, intravenous, 2 mg/h, Rate 2 mg/h, CL=Rate/Css, individual subjects, read-out: CL (converted)
  clearance: 115 mL/min
[1]; human, plasma, intravenous, 2 mg/h, Rate 2 mg/h, Mean, read-out: CL, Mean (converted)
  clearance: 95.3 mL/min
[1]; human, plasma, intravenous, 4 mg/h, Rate 4 mg/h, CL=Rate/Css, individual subjects, read-out: CL (converted)
  clearance: 107 mL/min
[1]; human, plasma, intravenous, 4 mg/h, Rate 4 mg/h, Mean, read-out: CL, Mean (converted)
  clearance: 109 mL/min
[1]; human, plasma, intravenous, 8 mg/h, Rate 8 mg/h, Mean, read-out: CL, Mean (converted)
  clearance: 112 mL/min
[1]; human, plasma, intravenous, 12 mg/h, Rate 12 mg/h, CL=Rate/Css, individual subjects, read-out: CL (converted)
  clearance: 102 mL/min
[1]; human, plasma, intravenous, 12 mg/h, Rate 12 mg/h, Mean, read-out: CL, Mean (converted)
  clearance: 114 mL/min
[1]; human, plasma, intravenous, range of dose-group means, 1-12 mg/h, read-out: mean clearance
  clearance: 95.3 to 139 mL/min
[1]; human, plasma, intravenous, range of dose-group means, 1-12 mg/h, t1/2 = 4 hours assumed, read-out: Mean volume of distribution
  Vd: 33 to 48 L
[1]; [4]
  level at 2 h: 39.1 ng/mL
  level at 168 h: 156 ng/mL
  level at 170 h: 66.6 ng/mL
  level at 336 h: 209 ng/mL
[1]; human, plasma, 1 mg/h, Rate 1 mg/h, 338 h, Mean, read-out: EMD 121974 Concentrations, Mean
  level at 338 h: 191 ng/mL
[1]; human, plasma, 1 mg/h, Rate 1 mg/h, 504 h, Mean, read-out: EMD 121974 Concentrations, Mean
  level at 504 h: 62.1 ng/mL
[1]; human, plasma, 1 mg/h, Rate 1 mg/h, 504 h, individual subjects, read-out: EMD 121974 Concentrations
  level at 504 h: 62.1 ng/mL
[1]; human, plasma, 1 mg/h, Rate 1 mg/h, 506 h, Mean, read-out: EMD 121974 Concentrations, Mean
  level at 506 h: 109 ng/mL
[1]; human, plasma, 1 mg/h, Rate 1 mg/h, 506 h, individual subjects, read-out: EMD 121974 Concentrations
  level at 506 h: 94.4 ng/mL
[1]; [5]
  level at 2 h: 162 ng/mL
  level at 168 h: 344 ng/mL
  level at 170 h: 280 ng/mL
  level at 336 h: 495 ng/mL
[1]; human, plasma, 2 mg/h, Rate 2 mg/h, 338 h, Mean, read-out: EMD 121974 Concentrations, Mean
  level at 338 h: 360 ng/mL
[1]; human, plasma, 2 mg/h, Rate 2 mg/h, 504 h, Mean, read-out: EMD 121974 Concentrations, Mean
  level at 504 h: 376 ng/mL
[1]; human, plasma, 2 mg/h, Rate 2 mg/h, 506 h, Mean, read-out: EMD 121974 Concentrations, Mean
  level at 506 h: 337 ng/mL
[1]; [6]
  level at 2 h: 328 ng/mL
  level at 168 h: 626 ng/mL
  level at 170 h: 516 ng/mL
  level at 336 h: 726 ng/mL
[1]; human, plasma, 4 mg/h, Rate 4 mg/h, 338 h, Mean, read-out: EMD 121974 Concentrations, Mean
  level at 338 h: 559 ng/mL
[1]; human, plasma, 4 mg/h, Rate 4 mg/h, 504 h, Mean, read-out: EMD 121974 Concentrations, Mean
  level at 504 h: 665 ng/mL
[1]; human, plasma, 4 mg/h, Rate 4 mg/h, 506 h, Mean, read-out: EMD 121974 Concentrations, Mean
  level at 506 h: 681 ng/mL
[1]; [7]
  level at 2 h: 503 ng/mL
  level at 168 h: 1460 ng/mL
  level at 170 h: 1210 ng/mL
  level at 336 h: 525 ng/mL
[1]; human, plasma, 8 mg/h, Rate 8 mg/h, 338 h, Mean, read-out: EMD 121974 Concentrations, Mean
  level at 338 h: 972 ng/mL
[1]; human, plasma, 8 mg/h, Rate 8 mg/h, 504 h, Mean, read-out: EMD 121974 Concentrations, Mean
  level at 504 h: 1630 ng/mL
[1]; human, plasma, 8 mg/h, Rate 8 mg/h, 506 h, Mean, read-out: EMD 121974 Concentrations, Mean
  level at 506 h: 1290 ng/mL
[1]; [8]
  level at 2 h: 499 ng/mL
  level at 168 h: 1770 ng/mL
  level at 170 h: 1410 ng/mL
  level at 336 h: 2440 ng/mL
[1]; human, plasma, 12 mg/h, Rate 12 mg/h, 338 h, Mean, read-out: EMD 121974 Concentrations, Mean
  level at 338 h: 1670 ng/mL
[1]; human, plasma, 12 mg/h, Rate 12 mg/h, 504 h, Mean, read-out: EMD 121974 Concentrations, Mean
  level at 504 h: 1750 ng/mL
[1]; human, plasma, 12 mg/h, Rate 12 mg/h, 506 h, Mean, read-out: EMD 121974 Concentrations, Mean
  level at 506 h: 1550 ng/mL
[2]; human, in vivo
  dose that can be safely administered as a continuous infusion: at least 18 mg/h
[2]; one patient treated at 27 mg/h, after two weeks of therapy
  patient death: unobserved death of unknown cause
